From the NIST ThermoML archive (doi:10.1021/acs.jced.7b00222)
Several values for one entry are separate records, joined by “and”; a condition that tells them apart may be missing. Identical values can stand only once. ± gives the expanded uncertainty stated by the source.

Conditions: Liquid, Optical interferometry

CO [methanol]
Conditions	thermal diffusivity
297.95 K, 5300000 kPa	2.19e-07 ± 1.2e-08 m2/s
298.15 K, 4220000 kPa	2.17e-07 ± 1.2e-08 m2/s
299.15 K, 0 kPa	9.7e-08 ± 7e-09 m2/s
299.15 K, 880000 kPa	1.59e-07 ± 1.2e-08 m2/s
299.15 K, 2430000 kPa	1.86e-07 ± 1.4e-08 m2/s
299.15 K, 3100000 kPa	1.92e-07 ± 1.3e-08 m2/s
299.15 K, 3120000 kPa	1.99e-07 ± 1.3e-08 m2/s
299.75 K, 5000000 kPa	2.37e-07 ± 4.5e-08 m2/s
299.85 K, 400000 kPa	1.32e-07 ± 1e-08 m2/s
300.15 K, 370000 kPa	1.35e-07 ± 1e-08 m2/s
300.75 K, 1750000 kPa	1.8e-07 ± 1e-08 m2/s
300.95 K, 860000 kPa	1.57e-07 ± 1.4e-08 m2/s
301.05 K, 1290000 kPa	1.7e-07 m2/s and 1.66e-07 m2/s

Conditions	thermal diffusivity [m2/s]
299.15 K	9.7e-08 ± 6e-09
